Legend:
[1] = tested on: naïve T cells with or without NCI-N87 tumor cells; assay: Cytokine release assay with naive T cells; type: cell-based, human; details: 16.7 nM antibody, 24 hours
Experimental: Cytokine release was assayed as previously described (Ahmed et al., Oncolmmunology 2015; 4:e989776), using naïve T cells prepared as described above. T cells (200,000/well) were cultured with or without NCI-N87 tumor cells (10,000/well) for 24 hours before supernatants being harvested for ELISA-based cytokine assay.

[2] = tested on: naïve T cells; assay: T cell proliferation assay (WST-8); type: cell-based, human; details: 67 nM antibody, absence of tumor targets, 6 days
Experimental: For T cell proliferation, naïve T cells were purified from human PBMC using Pan T cell isolation kit (Miltenyi Biotec). 2×10^5 purified T cells were mixed with different antibodies in 96-well cell culture plate to a final volume of 250 μl/well. T cells were cultured and maintained in RPMI-1640 supplemented with 10% FBS in 37° C. for 6 days. T cell proliferation was quantitated using the WST-8 kit as described above.

[3] = tested on: HCC1954 breast cancer xenografts; assay: Xenograft, subcutaneous tumor plus intravenous effector cells; type: in vivo, DKO mice; details: s.c. HCC1954; for tumor volume changes, PD1/PDL1 blockade resistant model: i.v. PBMC 7.5×10^6 once per week for 2 weeks, 100 μg each twice per week for 4 weeks
Excerpt: For in vivo therapy studies, BALB-Rag2-/−IL-2R-γc-KO (“DKO”) mice (derived from colony of Dr. Mamoru Ito, CIEA, Kawasaki, Japan; see, e.g., Koo et al., 2009, Expert Rev Vaccines 8:113-20 and Andrade et al., 2011, Arthritis Rheum 63:2764-73) were used. […] Subcutaneous xenografts were created with 5×10^6 cells suspended in Matrigel (Corning Corp, Tewksbury Mass.) and implanted in the flank of DKO mice. Effector peripheral blood mononuclear cell (PBMC) cells were purified from buffy coats purchased from the New York Blood Center. Prior to every experimental procedure, PBMCs were analyzed for their percentage of CD3, CD4, CD8 and CD56 cells to ensure consistency. […] Tumor size was measured using (1) hand-held TM900 scanner (Pieira, Brussels, BE); (2) Calipers; or (3) bioluminescence. Bioluminescence imaging was conducted using the Xenogen In Vivo Imaging System (IVIS) 200 (Caliper LifeSciences). Briefly, mice were injected intravenously with 0.1 mL solution of D-luciferin (Gold Biotechnology; 30 mg/mL stock in PBS). Images were collected 1 to 2 minutes after injection using the following parameters: a 10- to 60-second exposure time, medium binning, and an 8 f/stop. Bioluminescence image analysis was performed using Living Image 2.6 (Caliper LifeSciences).
For in vivo therapy studies, BALB-Rag2-/−IL-2R-γc-KO (DKO) mice (derived from colony of Dr. Mamoru Ito, CIEA, Kawasaki, Japan)(Koo et al., Expert Rev Vaccines 2009; 8:113-20; Andrade et al., Arthritis Rheum 2011; 63:2764-73) were used. […] Effector PBMC cells and ATCs were prepared as described above. Prior to every experimental procedure, PBMCs and ATCs were analyzed by FACS for their percentage of CD3, CD4, CD8 and CD56 cells to ensure consistency. […] Tumor size was measured using 1) hand-held TM900 scanner (Pieira, Brussels, BE), 2) Calipers, or 3) Bioluminescence. […]

[4] = tested on: HER2(+) SCCHN cell line PCI-13; assay: Blocking of HER2-BsAb T-cell cytotoxicity by trastuzumab or huOKT3; type: cell-based, human; details: 0.1 μg/mL HER2-BsAb with 10 μg/mL blocking antibody
Experimental: (§1) Cell cytotoxicity was assayed by ^51Cr release as previously described (Xu et al., Cancer immunology research 2015; 3:266-77), and EC50 was calculated using SigmaPlot software. Effector PBMC cells were purified from buffy coats purchased from the New York Blood Center. ATCs were first purified from human PBMC using Pan T cell isolation kit, and then activated and expanded for approximately 14 days with CD3/CD28 Dynabeads (Invitrogen) according to manufacturer's protocol.

[5] = tested on: HER2-positive cells; assay: Blocking of HER2-BsAb induced T cell cytotoxicity; type: cell-based, human; details: HER2-positive cells pre-incubated with blocking antibody
Experimental: (§2) The ^51Cr release assay was performed with effector T cells cultured in vitro in the presence of anti-CD3 and anti-CD28 for about 14 days. […] 5000 target cells/well were mixed with 50,000 effector cells (E:T=10:1) and BsAb antibodies in 96-well polystyrene round-bottom plates (BD Biosciences) to a final volume of 250 μl/well. The plates were incubated at 37° C. for 4 h. […] Percentage of specific release was calculated using the formula: (experimental cpm−background cpm)/(total cpm−background cpm)×100%, where cpm represented counts per minute of ^51Cr released. […] EC50 was calculated using SigmaPlot software.

[6] = tested on: SCCHN cell line PCI-30; assay: Cell proliferation assay (WST-8); type: cell-based, human; details: 10 nM kinase inhibitors, 10 μg/mL antibodies
Experimental: (§3) Cell proliferation was determined using an ELISA plate reader and the WST-8 kit (Dojindo technologies) following the manufacturer's instructions and using the formula: % survival rate=(Sample-Background)/(Negative control-Background). Lapatinib (MSKCC pharmacy) was ground using a mortar and pestle and suspended in DMSO as previously described. To determine statistical significance, the results were analyzed using one-way ANOVA using Prism 6.0.
(§4) For cell proliferation assays, 5,000 tumor cells were plated using RPMI-1640 supplemented with 10% FBS in a 96 well plate for 36 hours before being treated with lapatinib or the antibodies at the specified concentrations. Cell proliferation was determined using an ELISA plate reader and the WST-8 kit (Dojindo technologies) following the manufacturer's instructions and using the formula: % survival rate=(Sample-Background)/(Negative control-Background). Lapatinib (Memorial Sloan Kettering Cancer Center pharmacy) was ground using a mortar and pestle and suspended in DMSO as previously described (Chen et al., 2012, Molecular cancer therapeutics 11:660-669). To determine statistical significance, the results were analyzed using one-way ANOVA using Prism 6.0.
(§5) For tumor cell proliferation, 5,000 tumor cells were plated using RPMI-1640 supplemented with 10% fetal bovine serum (“FBS”) in a 96 well plate for 36 hours before being treated with—kinase inhibitors or the antibodies at the specified concentration. Cell proliferation was determined using the cell counting WST-8 kit (Dojindo technologies) following the manufacturer's instructions and using the formula: % survival rate=(Sample-Background)/(Negative control-Background). Lapatinib was ground using a mortar and pestle and suspended in DMSO as previously described (Chen et al., Molecular cancer therapeutics 2012; 11:660-9). To determine statistical significance, the results were analyzed using one-way ANOVA using Prism 6.0.

[7] = tested on: U2OS osteosarcoma cells; assay: Cell proliferation assay (WST-8); type: cell-based, human; details: 10 nM kinase inhibitors, 10 μg/mL antibodies
Experimental: as §3, §4, §5

[8] = tested on: HeLa cervical carcinoma cells; assay: Cell proliferation assay (WST-8); type: cell-based, human; details: 10 nM kinase inhibitors, 10 μg/mL antibodies
Experimental: as §3, §4, §5

[9] = tested on: HeLa cervical cancer cells; assay: HER2-BsAb redirected T cell cytotoxicity, 51Cr release assay; type: cell-based, human; details: pretreatment with lapatinib
Experimental: as §2, §1

[10] = tested on: trastuzumab-sensitive breast carcinoma cell line SKBR3; assay: Cell proliferation assay (WST-8); type: cell-based, human; details: lapatinib 10 nM, 72 hours
Experimental: as §3, §4, §5

[11] = target: CD3 (Homo sapiens, UniProt P07766); assay: Binding affinity analysis by Biacore (Surface Plasmon Resonance); details: antigen CD3, Biacore
CD3, sequence (P07766 23-126 limits assumed): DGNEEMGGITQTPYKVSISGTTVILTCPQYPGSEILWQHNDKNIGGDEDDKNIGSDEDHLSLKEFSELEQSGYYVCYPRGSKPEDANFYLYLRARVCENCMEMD
Experimental: Binding assays were performed by Surface Plasmon Resonance using Biacore T100 similar as described in Okazaki et al., 2004, J Mol Biol; 336(5): 1239-1249.

With “huOKT3: humanized OKT3 anti-CD3 IgG1, same variable sequences as in huOKT3 scFv” the “cytokine release in the absence of tumor targets” value [1] was “substantially more cytokines”, the T cell proliferation [2] was “robust T cell proliferation” and the tumor growth ([3]; i.v. PBMC once a week for 3 weeks, i.v. antibody twice a week for 3 weeks) was “only modest effects”. For the same compound, the “blocking of HER2-BsAb mediated T-cell cytotoxicity” value [4] was “prevented” and the “blocking of the ability of HER2-BsAb to induce T cell cytotoxicity” value [5] was “blocked”.

For C#Cc1cccc(Nc2ncnc3cc(OCCOC)c(OCCOC)cc23)c1 [erlotinib], the “sensitivity of cells in proliferation assay” value (“sensitivity of cells” for short) [6] was “resistant”, the “sensitivity of cells” value [7] was “minimal sensitivity” and the “sensitivity of cells” value [8] was “pan-resistant”.

Pembrolizumab was tested, and the “tumor volume changes, PD1/PDL1 blockade resistant model” value [3] was “no effect”.

With Atezolizumab the “tumor volume changes, PD1/PDL1 blockade resistant model” value [3] was “no effect”.

For CS(=O)(=O)CCNCc1ccc(-c2ccc3ncnc(Nc4ccc(OCc5cccc(F)c5)c(Cl)c4)c3c2)o1 [lapatinib], the “effect of pretreatment on HER2-BsAb mediated cytotoxicity” value [9] was “increased sensitivity”, the “inhibition of cell proliferation (positive control)” value [10] was “strongest inhibition of cell proliferation” and the “sensitivity of cells” value [6] was “resistant”. The “sensitivity of cells” value [7] was “minimal sensitivity” and the “sensitivity of cells” value [8] was “pan-resistant”.

In the case of CCOc1cc2ncc(C#N)c(Nc3ccc(OCc4ccccn4)c(Cl)c3)c2cc1NC(=O)/C=C/CN(C)C [neratinib], the “sensitivity of cells” value [6] is reported as “resistant”, the “sensitivity of cells” value [7] is reported as “minimal sensitivity” and the “sensitivity of cells” value [8] is reported as “pan-resistant”.

Work on “huOKT3 IgG1-aGlyco: parental aglycosylated huOKT3 IgG1” yielded a Kd [11] of 64.6 nM, a koff [11] of 0.109 s⁻¹ and a kon [11] of 1.68e+06 M⁻¹ s⁻¹.

In the case of “huOKT3 Fab: monovalent Fab prepared from huOKT3 IgG1”, the “cytokine release in the absence of tumor targets” value [1] is reported as “background cytokine release” and the T cell proliferation [2] is reported as “negligible effects”.

Source: patent publication US11820832B2, “Bispecific HER2 and CD3 binding molecules” (MEMORIAL SLOAN KETTERING CANCER CENTER, priority 2014, dated 2023)
